Legend:
[1] = test system: μ receptors for the opioids (MOR); experiment: mRNA expression of the μ receptors for the opioids in epithelial cells stimulated by microorganisms (real-time PCR); type: cell-based
[2] = test system: CB1 cannabinoid receptors; experiment: mRNA expression of the CB1 receptors in epithelial cells stimulated by microorganisms (real-time PCR); type: cell-based
CB2 receptors = experiment: mRNA expression of the CB2 receptors in epithelial cells stimulated by microorganisms (real-time PCR); type: cell-based
mu-opioid receptor (MOR) = test system: mu-opioid receptor (MOR); design: species or system Balb/c mice; conditions: mouse, in vivo
MOR = MOR immunohistochemistry of colonic epithelial cells of mice; type: in vivo, Balb/c mice; conditions: mouse colon sections, 10^9 CFU once a day for fourteen days
CB1 = CB1 immunohistochemistry of colonic epithelial cells of mice; type: in vivo, Balb/c mice; conditions: mouse colon sections, 10^9 CFU once a day for fourteen days
CB2 = CB2 immunohistochemistry of colonic epithelial cells of mice; type: in vivo, Balb/c mice; conditions: mouse colon sections, 10^9 CFU once a day for fourteen days
TNFα = experiment: Colonic TNF alpha mRNA expression in mice (real-time PCR); type: in vivo, Balb/c mice
KC = experiment: Colonic KC mRNA expression in mice (real-time PCR); type: in vivo, Balb/c mice
IL-1β = experiment: Colonic IL-1 beta mRNA expression in mice (real-time PCR); type: in vivo, Balb/c mice
[3] = Balb/c mice, oral 10^9 CFU during 15 days
[4] = mouse colon, 14 days of administration

Molecule	induction of the μ receptors for the opioids (in words) ([1]; ATCC HTB-38 epithelial cells (FIG. 1), comparator TNF-α 10 ng/ml)	increase in the basal expression level of the mRNA of the μ receptors for the opioids ([1]; ATCC HTB-38 epithelial cells, after 3 hours' incubation (FIG. 1))	MOR expression in the epithelial cells (in words) ([1]; HT-29 or Caco-2 cells, 100 bacteria/cell, from the first hour of incubation)	increase in the basal expression level of the mRNA of CB1 ([2]; ATCC HTB-38 epithelial cells, after 3 hours' incubation (FIG. 2))	CB1 expression ([2]; HT-29 or Caco-2 cells, 100 bacteria/cell, 0 to 6 hours, p<0.05)	increase in the basal expression level of the mRNA of the CB2 receptors (CB2 receptors; ATCC HTB-38 epithelial cells, after 3 hours' incubation (FIG. 3))	CB2 expression (CB2 receptors; HT-29 or Caco-2 cells, 100 bacteria/cell, 0 to 6 hours, p<0.01)	increase of MOR mRNA expression in the colon vs untreated animals (mu-opioid receptor (MOR)) [fold]	expression of MOR mRNA at the colonic level (mu-opioid receptor (MOR); po)	epithelial stained cells for MOR (MOR) [%]	epithelial stained cells for CB1 (CB1) [%]	epithelial stained cells for CB2 (CB2) [%]	diminution of the expression of colonic inflammatory cytokines (TNF alpha) (TNFα; [3])	decreased expression of TNFα mRNA level compared to controls (TNFα; [4])	diminution of the expression of colonic inflammatory cytokines (KC) (KC; [3])	decreased expression of KC mRNA level compared to controls (KC; [4])	diminution of the expression of colonic inflammatory cytokines (IL-1 beta) (IL-1β; [3])	decreased expression of IL-1β mRNA level compared to controls (IL-1β; [4])	effect of NFkappaB pathway inhibition on the expression of MOR ([1]; HT-29 cells pre-treated with CAPE, stimulated with L. acidophilus)
Lactobacillus acidophilus	of the same order of magnitude as that obtained by TNF-α	approximately 1000 fold	strong MOR expression	approximately 1000 fold	848±180	approximately 100 fold	1498±333	24	24±0.75	60±10	60±8	40±7	at least 50%	More than 50%	at least 50%	More than 50%	at least 50%	More than 50%	
O=C(/C=C/c1ccc(O)c(O)c1)OCCc1ccccc1 [CAPE, caffeic acid phenetyl ester, reference compound]																			did not induce modifications of the expression of MOR
